Experimental data from ChEMBL document CHEMBL1201862, “PubChem BioAssay data set” (2004).
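The compound was tested at five concentrations on cells cultured in 96-well plates, with a 48-hour exposure period. Here, GI50 denotes the concentration required for 50% inhibition of growth.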 Activity calls are given as the source filed them. No stated cut-off is given here; in the data, active = GI50 up to about 1.1 µM and inactive = higher.

Key:
Assay in all cases: NCI anticancer screen, dose series, 48 h
CAKI-1 = tested on: CAKI-1
COLO 205 = tested on: COLO 205
OVCAR-5 = tested on: OVCAR-5
HCT-116 = tested on: HCT-116
HL-60 = tested on: HL-60
EKVX = tested on: EKVX
786-0 = tested on: 786-0
A549 = tested on: A549
SW-620 = tested on: SW-620
OVCAR-4 = tested on: OVCAR-4
MOLT-4 = tested on: MOLT-4
OVCAR-8 = tested on: OVCAR-8
UO-31 = tested on: UO-31
SNB-19 = tested on: SNB-19
KM12 = tested on: KM12
Malme-3M = tested on: Malme-3M
OVCAR-3 = tested on: OVCAR-3
TK-10 = tested on: TK-10
HOP-62 = tested on: HOP-62

Measured: GI50

CC(=O)N(C)c1ccc(Nc2ccnc3ccc4nn(C)nc4c23)cc1
inactive: CAKI-1 12.2 µM | COLO 205 19.1 µM | OVCAR-5 30.1 µM | HCT-116 19 µM | HL-60 18.4 µM | EKVX 24.3 µM | 786-0 26.9 µM | A549 17.5 µM | SW-620 35.3 µM | OVCAR-4 28.4 µM | MOLT-4 13.6 µM | OVCAR-8 36.1 µM | UO-31 9.02 µM | SNB-19 37.3 µM | KM12 24.4 µM | Malme-3M 18.9 µM | OVCAR-3 19.3 µM | TK-10 22.3 µM | HOP-62 26 µM

OC1C2CN3CCN(C2)CC1(c1ccccc1)C3 (configuration not stated)
inactive: CAKI-1 > 100 µM | COLO 205 > 100 µM | OVCAR-5 > 100 µM | HCT-116 > 100 µM | HL-60 > 100 µM | EKVX > 100 µM | 786-0 > 100 µM | SW-620 > 100 µM | OVCAR-4 > 100 µM | MOLT-4 > 100 µM | OVCAR-8 > 100 µM | UO-31 > 100 µM | SNB-19 > 100 µM | KM12 > 100 µM | Malme-3M > 100 µM | OVCAR-3 > 100 µM | TK-10 > 100 µM | HOP-62 > 100 µM

c1ccc(SC(Sc2ccccc2)c2ccc3c(c2)OCO3)cc1
inactive: CAKI-1 > 100 µM | OVCAR-5 > 100 µM | HCT-116 > 100 µM | HL-60 > 100 µM | EKVX 37.2 µM | 786-0 > 100 µM | A549 > 100 µM | SW-620 > 100 µM | OVCAR-4 > 100 µM | MOLT-4 38.1 µM | OVCAR-8 > 100 µM | UO-31 > 100 µM | SNB-19 > 100 µM | KM12 > 100 µM | Malme-3M > 100 µM | OVCAR-3 60.3 µM | TK-10 > 100 µM | HOP-62 > 100 µM

COc1ccc2nc3c([N+](=O)[O-])ccc(NCCN(C)C)c3c(N)c2c1
active: COLO 205 0.859 µM | HCT-116 0.145 µM | HL-60 0.194 µM | SW-620 0.181 µM | MOLT-4 0.479 µM | KM12 0.469 µM | OVCAR-3 0.562 µM
inactive: CAKI-1 1.8 µM | OVCAR-5 1.52 µM | EKVX 1.71 µM | 786-0 1.18 µM | A549 1.55 µM | OVCAR-4 1.24 µM | OVCAR-8 1.66 µM | UO-31 1.35 µM | SNB-19 1.84 µM | Malme-3M 1.34 µM | TK-10 1.6 µM | HOP-62 1.66 µM

O=S(=O)(N/N=C1\CC2CCC1C2)c1ccccc1 (configuration not stated)
inactive: CAKI-1 > 100 µM | COLO 205 > 100 µM | OVCAR-5 > 100 µM | HCT-116 > 100 µM | HL-60 > 100 µM | EKVX > 100 µM | 786-0 > 100 µM | A549 > 100 µM | SW-620 > 100 µM | OVCAR-4 > 100 µM | MOLT-4 > 100 µM | OVCAR-8 > 100 µM | UO-31 > 100 µM | SNB-19 > 100 µM | KM12 > 100 µM | Malme-3M > 100 µM | OVCAR-3 > 100 µM | TK-10 > 100 µM | HOP-62 > 100 µM

NC(=O)c1cc([N+](=O)[O-])cc([N+](=O)[O-])c1 [NITROMIDE]
inactive: CAKI-1 > 100 µM | COLO 205 30.3 µM | OVCAR-5 > 100 µM | HCT-116 > 100 µM | HL-60 40.9 µM | EKVX > 100 µM | 786-0 > 100 µM | A549 > 100 µM | SW-620 > 100 µM | OVCAR-4 > 100 µM | MOLT-4 > 100 µM | OVCAR-8 > 100 µM | UO-31 > 100 µM | SNB-19 > 100 µM | KM12 > 100 µM | Malme-3M 69.3 µM | OVCAR-3 > 100 µM | TK-10 > 100 µM | HOP-62 > 100 µM

CC1=C(C(=O)O)N2C(=O)[C@@H](NC(=O)C(c3ccc(O)cc3)N3CSC(=S)N(C(C)C)C3)C2SC1 (some centres not stated)
inactive: COLO 205 97.7 µM | OVCAR-5 > 100 µM | HCT-116 > 100 µM | HL-60 > 100 µM | EKVX > 100 µM | 786-0 > 100 µM | A549 > 100 µM | OVCAR-4 > 100 µM | MOLT-4 > 100 µM | OVCAR-8 > 100 µM | UO-31 > 100 µM | SNB-19 > 100 µM | KM12 > 100 µM | Malme-3M > 100 µM | OVCAR-3 99.1 µM | TK-10 > 100 µM | HOP-62 > 100 µM

CCCNC(=O)OCc1c(COC(=O)NCCC)c(-c2ccc(Cl)c(Cl)c2)n2c1CCC2
inactive: CAKI-1 1.72 µM | COLO 205 3.64 µM | OVCAR-5 3.76 µM | HCT-116 5.09 µM | HL-60 2.64 µM | EKVX 11.2 µM | 786-0 2.82 µM | A549 6.61 µM | SW-620 4.63 µM | MOLT-4 3.11 µM | OVCAR-8 4.36 µM | UO-31 2.86 µM | SNB-19 8.93 µM | KM12 10.7 µM | Malme-3M 2.94 µM | OVCAR-3 14 µM | TK-10 1.86 µM | HOP-62 6.01 µM

CN(C)CC/C(=N\Nc1ccc(Cl)c(Cl)c1)c1ccccc1
inactive: COLO 205 1.77 µM | OVCAR-5 2.56 µM | HCT-116 1.73 µM | HL-60 2.29 µM | EKVX 1.82 µM | 786-0 1.71 µM | A549 1.96 µM | SW-620 1.72 µM | OVCAR-4 2.58 µM | MOLT-4 2.17 µM | OVCAR-8 1.87 µM | UO-31 1.45 µM | SNB-19 3.49 µM | KM12 2.05 µM | Malme-3M 3.24 µM | OVCAR-3 2.8 µM | TK-10 1.98 µM | HOP-62 2.4 µM

CN1C(=S)CSc2ccccc21
inactive: CAKI-1 > 100 µM | COLO 205 > 100 µM | OVCAR-5 > 100 µM | HCT-116 > 100 µM | HL-60 > 100 µM | EKVX 44.1 µM | 786-0 > 100 µM | A549 > 100 µM | SW-620 > 100 µM | OVCAR-4 > 100 µM | MOLT-4 > 100 µM | OVCAR-8 > 100 µM | UO-31 42.3 µM | SNB-19 > 100 µM | KM12 > 100 µM | Malme-3M > 100 µM | OVCAR-3 > 100 µM | TK-10 > 100 µM | HOP-62 > 100 µM

CC(=O)Oc1cc(/C=C/c2ccc(O)cc2)cc(OC(C)=O)c1
inactive: CAKI-1 35.7 µM | COLO 205 > 100 µM | OVCAR-5 46 µM | HCT-116 35.6 µM | HL-60 18.8 µM | 786-0 37.5 µM | A549 24.8 µM | SW-620 26.1 µM | OVCAR-4 18.3 µM | MOLT-4 16.8 µM | OVCAR-8 35.8 µM | UO-31 36.4 µM | SNB-19 55.8 µM | KM12 24.1 µM | Malme-3M 17.7 µM | OVCAR-3 48 µM | TK-10 24.9 µM | HOP-62 48.2 µM

Cc1nnc2nc(-c3ccc(Cl)cc3Cl)cc(-c3ccc(Cl)cc3)n12
inactive: CAKI-1 66.5 µM | COLO 205 13.7 µM | OVCAR-5 > 100 µM | HCT-116 > 100 µM | HL-60 > 100 µM | 786-0 > 100 µM | A549 76.4 µM | SW-620 > 100 µM | OVCAR-4 23.3 µM | MOLT-4 15.5 µM | OVCAR-8 > 100 µM | UO-31 24.4 µM | SNB-19 > 100 µM | KM12 > 100 µM | Malme-3M > 100 µM | OVCAR-3 50.1 µM | TK-10 > 100 µM | HOP-62 > 100 µM

O=C1CN=C(C[N+](=O)[O-])c2ccccc21
inactive: CAKI-1 > 100 µM | COLO 205 > 100 µM | OVCAR-5 > 100 µM | HCT-116 > 100 µM | HL-60 > 100 µM | EKVX > 100 µM | 786-0 > 100 µM | A549 > 100 µM | SW-620 > 100 µM | OVCAR-4 > 100 µM | MOLT-4 > 100 µM | OVCAR-8 > 100 µM | UO-31 > 100 µM | SNB-19 > 100 µM | KM12 > 100 µM | Malme-3M > 100 µM | OVCAR-3 > 100 µM | HOP-62 > 100 µM

CCCNC(=O)NNC(=O)c1c[nH]c2nc(C)ccc2c1=O
inactive: CAKI-1 > 100 µM | COLO 205 > 100 µM | OVCAR-5 > 100 µM | HCT-116 > 100 µM | HL-60 > 100 µM | EKVX > 100 µM | 786-0 > 100 µM | A549 > 100 µM | SW-620 > 100 µM | OVCAR-4 > 100 µM | MOLT-4 > 100 µM | OVCAR-8 > 100 µM | UO-31 > 100 µM | SNB-19 > 100 µM | KM12 > 100 µM | Malme-3M > 100 µM | OVCAR-3 > 100 µM | TK-10 > 100 µM | HOP-62 > 100 µM

Cc1cc2nc3c(C#N)c4c(c(Nc5ccc(Cl)cc5)n3c2cc1C)CCC4
inactive: CAKI-1 20.5 µM | COLO 205 25.2 µM | OVCAR-5 17.3 µM | HCT-116 16.7 µM | EKVX 33.8 µM | 786-0 15.9 µM | SW-620 17.9 µM | OVCAR-4 32.5 µM | MOLT-4 6.03 µM | OVCAR-8 19.3 µM | KM12 32.9 µM | Malme-3M 23.8 µM | OVCAR-3 17.9 µM | TK-10 11.1 µM | HOP-62 58.7 µM
